Literature values as cited in patent publication US8383585B2, “Biomarkers for cardiodiabetes” (IKFE Institut fur Klinische Forschung und Entwicklung GmbH, priority 2008, dated 2013).

Legend:
Design in all cases: key: ↑: An up arrow indicates an increase in biomarker levels; ↓: a down arrow indicates a decrease; ◯: “O” indicates substantially no change
Details in all cases: effect on biomarker level in a subject
hsCRP = test system: hsCRP
adiponectin = test system: adiponectin
intact proinsulin = test system: intact proinsulin

Compound	hsCRP (hsCRP)	adiponectin (adiponectin)	intact proinsulin (intact proinsulin)
CN(C)C(=N)N=C(N)N [metformin]	◯	↑	↓
insulin	◯	◯	↓
